In article PMC12811659:

Key:
[1] = not given; remark: listed apart in the source
[2] = not given; remark: listed apart in the source

SMILES	trans-isomer fraction, native state	trans-isomer fraction after 520 nm irradiation [1]	cis-isomer fraction after 365 nm irradiation [2]
CC[C@H](C)[C@H](NC(=O)Cn1nc(C)c(/N=N/c2ccccc2)c1C)C(=O)N[C@@H](CO)C(=O)N[C@@H](C)C(=O)O	85%	87%	
CC[C@H](C)[C@H](NC(=O)Cn1nc(C)c(/N=N\c2ccccc2)c1C)C(=O)N[C@@H](CO)C(=O)N[C@@H](C)C(=O)O			> 98%
